Results on three compounds are retold here after ChEMBL document CHEMBL5724914, “Linking interpersonal differences in gut microbiota composition and drug biotransformation activity” (2024).

The conditions of data set [1]: human gut metagenome, 24 h, 2 µM.
The conditions of data set [2]: human gut metagenome, 24 h, 2 µM. This is another data set of the same source.
A short description of data set [3]: The drug is tested on Z-009 corresponding to pig gut metagenome with ENA study accession number: PRJEB37062 and ENA sample accession number: ERS12561809 for biotransformation under anaerobic condition. The drug concentrations were measured over 9 timepoints collected between 0 and 24 hours of incubation by liquid-chromatography-coupled mass spectrometry (LC–MS). The following applies: 2 µM.

Data set [4] in a line: The drug is tested on Z-023 corresponding to metagenome with ENA study accession number: PRJEB37062 and ENA sample accession number: ERS12561822 for biotransformation under anaerobic condition. The drug concentrations were measured over 9 timepoints collected between 0 and 24 hours of incubation by liquid-chromatography-coupled mass spectrometry (LC–MS). The following applies: 2 µM.

Data set [5] in a line: The drug is tested on WLS-220 corresponding to human gut metagenome with ENA study accession number: PRJEB37062 and ENA sample accession number: ERS12561769 for biotransformation under anaerobic condition. The drug concentrations were measured over 9 timepoints collected between 0 and 24 hours of incubation by liquid-chromatography-coupled mass spectrometry (LC–MS). The settings on record: 2 µM.

A short description of data set [6]: The drug is tested on Z-030 corresponding to mouse gut metagenome with ENA study accession number: PRJEB37062 and ENA sample accession number: ERS12561829 for biotransformation under anaerobic condition. The drug concentrations were measured over 9 timepoints collected between 0 and 24 hours of incubation by liquid-chromatography-coupled mass spectrometry (LC–MS). The settings on record: 2 µM.

A short description of data set [7]: The drug is tested on Z-011 corresponding to mouse gut metagenome with ENA study accession number: PRJEB37062 and ENA sample accession number: ERS12561811 for biotransformation under anaerobic condition. The drug concentrations were measured over 9 timepoints collected between 0 and 24 hours of incubation by liquid-chromatography-coupled mass spectrometry (LC–MS). The following applies: 2 µM.

The conditions of data set [8]: human gut metagenome, 24 h, 2 µM. The source holds these as a separate data set.
For data set [9] the following is noted: human gut metagenome, 24 h, 2 µM. The source holds these as a separate data set.
The nature of data set [10]: The drug is tested on Z-013 corresponding to rabbit gut metagenome with ENA study accession number: PRJEB37062 and ENA sample accession number: ERS12561813 for biotransformation under anaerobic condition. The drug concentrations were measured over 9 timepoints collected between 0 and 24 hours of incubation by liquid-chromatography-coupled mass spectrometry (LC–MS). The following applies: 2 µM.

A short description of data set [11]: The drug is tested on Z-025 corresponding to rabbit gut metagenome with ENA study accession number: PRJEB37062 and ENA sample accession number: ERS12561824 for biotransformation under anaerobic condition. The drug concentrations were measured over 9 timepoints collected between 0 and 24 hours of incubation by liquid-chromatography-coupled mass spectrometry (LC–MS). The following applies: 2 µM.

Data set [12] is described as follows: The drug is tested on WLS-240 corresponding to human gut metagenome with ENA study accession number: PRJEB37062 and ENA sample accession number: ERS12561773 for biotransformation under anaerobic condition. The drug concentrations were measured over 9 timepoints collected between 0 and 24 hours of incubation by liquid-chromatography-coupled mass spectrometry (LC–MS). The settings on record: 2 µM.

For data set [13] the following is noted: human gut metagenome, 24 h, 2 µM. The source holds these as a separate data set.
Data set [14] in a line: The drug is tested on Z-003 corresponding to pig gut metagenome with ENA study accession number: PRJEB37062 and ENA sample accession number: ERS12561803 for biotransformation under anaerobic condition. The drug concentrations were measured over 9 timepoints collected between 0 and 24 hours of incubation by liquid-chromatography-coupled mass spectrometry (LC–MS). The settings on record: 2 µM.

The conditions of data set [15]: human gut metagenome, 24 h, 2 µM. This is another data set of the same source.
Data set [16] is described as follows: The drug is tested on Z-017 corresponding to mouse gut metagenome with ENA study accession number: PRJEB37062 and ENA sample accession number: ERS12561816 for biotransformation under anaerobic condition. The drug concentrations were measured over 9 timepoints collected between 0 and 24 hours of incubation by liquid-chromatography-coupled mass spectrometry (LC–MS). The settings on record: 2 µM.

For data set [17] the following is noted: human gut metagenome, 24 h, 2 µM. This is another data set of the same source.
Data set [18] can be described thus: The drug is tested on WLS-090 corresponding to human gut metagenome with ENA study accession number: PRJEB37062 and ENA sample accession number: ERS12561753 for biotransformation under anaerobic condition. The drug concentrations were measured over 9 timepoints collected between 0 and 24 hours of incubation by liquid-chromatography-coupled mass spectrometry (LC–MS). The following applies: 2 µM.

Data set [19] in a line: The drug is tested on Z-010 corresponding to metagenome with ENA study accession number: PRJEB37062 and ENA sample accession number: ERS12561810 for biotransformation under anaerobic condition. The drug concentrations were measured over 9 timepoints collected between 0 and 24 hours of incubation by liquid-chromatography-coupled mass spectrometry (LC–MS). The following applies: 2 µM.

For data set [20] the following is noted: human gut metagenome, 24 h, 2 µM. This is another data set of the same source.
Also: call rule not given here.

Regarding `COc1ccc(C(CN(C)C)C2(O)CCCCC2)cc1` (stereo not given) [VENLAFAXINE], the “Bacterial Biotransformation” value in data set [1], in data set [2], in data set [3], in [4], in data set [5] and in data set [6] was “Compound NOT metabolized” in each case. The “Bacterial Biotransformation” value in [7] is on record as “Compound NOT metabolized”; in data set [8], “Compound NOT metabolized”; in data set [9], “Compound NOT metabolized”; in data set [10], “Compound NOT metabolized”; in [11], “Compound NOT metabolized”; in [12], “Compound metabolized”. The “Bacterial Biotransformation” value in data set [13], in data set [14], in data set [15], in data set [16], in data set [17] and in data set [18] was “Compound NOT metabolized” in each case. For the same compound, the “Bacterial Biotransformation” value in data set [19] and in [20] was “Compound NOT metabolized” in each case.

For the compound `CCOC(=O)C1=C[C@]2(CC)CCCN3CCc4c(n1c1ccccc41)[C@@H]32` [VINPOCETINE], the “Bacterial Biotransformation” value in [1] is “Compound metabolized”; in [2], “Compound metabolized”; in [3], “Compound metabolized”; in [4], “Compound metabolized”; in data set [5], “Compound NOT metabolized”; in [6], “Compound NOT metabolized”. For the same compound, the “Bacterial Biotransformation” value in data set [7] was “Compound NOT metabolized”; in [8], “Compound NOT metabolized”; in [9] it was “Compound metabolized”; in [10], “Compound NOT metabolized”; in data set [11], “Compound NOT metabolized”; in data set [12], “Compound metabolized”. The “Bacterial Biotransformation” value in data set [13] was “Compound NOT metabolized”; in data set [14], “Compound metabolized”; in data set [15], “Compound NOT metabolized”; in [16] it was “Compound NOT metabolized”; in data set [17], “Compound metabolized”; in data set [18], “Compound metabolized”. Also, the “Bacterial Biotransformation” value in data set [19] and in data set [20] was “Compound metabolized” in each case.

Take `CCN(C(C)=O)c1cccc(-c2ccnc3c(C#N)cnn23)c1` [ZALEPLON]: the “Bacterial Biotransformation” value is reported as “Compound metabolized” in data set [1]; “Compound metabolized” in data set [2]; “Compound metabolized” in data set [3]; “Compound metabolized” in [4]; “Compound metabolized” in data set [5]; “Compound NOT metabolized” in data set [6]. Further, the “Bacterial Biotransformation” value is reported as “Compound NOT metabolized” in data set [7]; “Compound NOT metabolized” in [8]; “Compound metabolized” in [9]; “Compound NOT metabolized” in [10]; “Compound metabolized” in data set [11]; “Compound metabolized” in [12]. Also, the “Bacterial Biotransformation” value is listed as “Compound NOT metabolized” in data set [13]; “Compound metabolized” in data set [14]; “Compound metabolized” in data set [15]; “Compound NOT metabolized” in data set [16]; “Compound metabolized” in data set [17]; “Compound metabolized” in [18]. The “Bacterial Biotransformation” value in data set [19] and in [20] was “Compound metabolized” in each case.
